Test [1] concerns Gal4-RAR (RARα, RARβ, RARγ). In words: Chimerical receptors Gal4-RAR, overall profile. It counts as cell-based.
A further test concerns Gal4-RARα. Nature of the test: Transactivation, chimerical receptor Gal4-RARα (transitory transfection of HeLa). It counts as cell-based. Particulars: 10^-6 M; 100% = TTNPB 10^-8 M.
For test [2], the system named is A-427 human pulmonary cancer cells. Nature of the test: MTT test, proliferation of A-427. (In general: Tetrazolium dyes change colour on reduction, which living cells bring about.)
In test [3] the test system is ZR-75-1 human mammary cancer cells. In words: MTT test, proliferation of ZR-75-1. It counts as cell-based. The method, boiled down:
(§1)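 After 24 h seeding, cells in MEM with 5% decomplemented FCS at 37° C were exposed to compound at 10^-8 M, 10^-6 M and 10^-4 M. Viability was assessed by MTT reduction to formazan, dissolved in DMSO. Mean optical density is expressed as % of untreated control (100%), in 6 duplicates.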

In test [4] the test system is RARE, endogenic RAR and RXR receptors, HRL+N lineage. In words: HRL+N transactivation (RARE-luciferase, stably transfected HeLa). It is filed as cell-based. The method, boiled down: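 Stably transfected HeLa line carrying luciferase under a RARE (GAGTGAnnnnnCGGTGA) […] endogenous RAR–RXR heterodimer co-activation. Tested in phenol red-free DMEM with 3% dextran-charcoal-treated FCS, in duplicate, protected from light.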

The test system of test [5] is T-47D human mammary cancer cells. Nature of the test: MTT test, proliferation of T-47D. It is filed as cell-based. Put shortly:
as §1

In test [6] the test system is response element RARE of RARβ gene, endogenic retinoic receptors, HRLN lineage. In words: HRLN transactivation (RARE-luciferase, stably transfected HeLa). It counts as cell-based. Put shortly:
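HeLa cells stably carrying a RARE3-tk-Luc reporter (natural RARβ RARE, GGTTCAnnnnnAGTTCA) report activation by endogenous RARs/RXRs. Assays run in duplicate in phenol red-free DMEM with 3% dextran-charcoal-treated FCS, protected from light; luciferase read-out.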

The test system of test [7] is ERE-βGlob-Luc, MELN lineage (MCF-7). Nature of the test: Anti-oestrogenic effect, MELN lineage activated by estradiol. It is filed as cell-based, human. Put shortly:
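MCF-7-derived MELN cells stably carry luciferase driven by chicken vitellogenin A2 ERE and βGlobin promoter; stimulated with 10^-9 M estradiol, run in duplicate. Basal activity is set with 1 μM 4-OH-tamoxifen and subtracted. Effect expressed as percentage.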

A further test relates to Gal4-RARγ. In words: Transactivation, chimerical receptor Gal4-RARγ (transitory transfection of HeLa). It counts as cell-based. Particulars: 10^-6 M; 100% = TTNPB 10^-8 M.
The subject of a further test is T-47D cells. Nature of the test: Effect on oestrogen-induced proliferation of T-47D cells. It is filed as cell-based, human.
Where [8] appears, read: Homo sapiens, A-427, 72 h, read-out: level of proliferation.

“Also recorded” adds a separate entry of the source.

For `C/C(=C/c1ccc2c(c1)C(C)(C)CCC2(C)C)c1ccc(-c2nnn[nH]2)cc1` [CB92834], the “Gal-RAR agonist profile (in words)” value in [1] is “not RAR agonists”. The “GAL4-RAR RARα transactivation” value in the test with Gal4-RARα came to 8%. In addition, the activity at 0.01 µM amounted to 80.5% in [2] (setting [8]); 27.9% in test [3] (Homo sapiens, ZR-75-1, 10^-8 M, 72 h, control = 100%, read-out: level of proliferation); 86.5% in [5] (Homo sapiens, T47D, T-47D, 10^-8 M, 72 h, control = 100%, read-out: level of proliferation). In addition, the activity at 1 µM in [2] (setting [8]) worked out at 78.3%; in test [3] (Homo sapiens, ZR-75-1, 10^-6 M, 72 h, control = 100%, read-out: level of proliferation), 39.9%; in [5] (Homo sapiens, T47D, T-47D, 10^-6 M, 72 h, control = 100%, read-out: level of proliferation) it was 83.2%; in the test on T-47D cells (Homo sapiens, T47D, 168 h, 10^-6 M, 100% = E2 10^-9 M, 7 days, read-out: growth of T-47D cells) it was 94%. Further, the activity at 100 µM in [2] (setting [8]) is 3.1%; in test [3] (Homo sapiens, ZR-75-1, 10^-4 M, 72 h, control = 100%, read-out: level of proliferation), 18.7%; in test [5] (Homo sapiens, T47D, T-47D, 10^-4 M, 72 h, control = 100%, read-out: level of proliferation), 3.5%. In addition, the “effect on cellular increase, A-427 (in words)” value in [2] (MTT test) is “show activity on the increase of these two lineages”. The “effect on cellular increase, ZR-75-1 (in words)” value in test [3] (MTT test) is listed as “strongly inhibitive activity on the cellular increase of the two lineages”. Further, the “HRL+N transactivation (in words)” value in test [4] was “weak transactivation, less than that of TTNPB; also recorded: with a specific RAR agonist induces a stronger transactivation than that observed for each compound tested separately; also recorded: over-activation by CB92834 of the transactivation induced by a selective RAR agonist on the HRL+N lineage”. Besides, the Emax in [4] (Homo sapiens, HeLa, read-out: HRL+N transactivation, E max (Table 27)) turned out to be 42%; in test [6] (Homo sapiens, HeLa, read-out: HRLN transactivation, E max), 21%. Further, in test [5] (MTT test), the “effect on cellular increase, T-47D (in words)” value is listed as “strongly inhibitive activity on the cellular increase of the two lineages”. In addition, the “HRLN transactivation (in words)” value in test [6] was “very feebly active”. Moreover, the inhibition (in general, the drop in the measured response relative to a control, in per cent) in test [7] (Homo sapiens, MCF7, 10^-6 M, cells activated by 10^-9 M estradiol) turned out to be 0%. The “anti-oestrogenic effect (in words)” value in test [7] (estradiol-activated MELN cells) was “inactive”. The “GAL4-RAR RARγ transactivation” value in the test with Gal4-RARγ was 2%. The “effect on oestrogen-induced growth, T-47D (in words)” value with T-47D cells (estradiol 10^-9 M) was “inactive on the oestrogen-induced growth”.
